Results taken from ChEMBL document CHEMBL1201862, “PubChem BioAssay data set” (2004).
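Cells were grown in 96-well plates and exposed to each compound for 48 hours at five concentrations; endpoints were interpolated linearly between bracketing concentrations, or set to the highest concentration if not reached. The concentration for 50% growth inhibition is given as GI50.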 Active and inactive are the calls of the source. Rule as the data show it: active = GI50 up to about 1.1 µM and inactive = higher.

Legend:
Test in all cases: DTP human tumour cell line panel, 48 h
CAKI-1 = tested on: CAKI-1
U-251 = tested on: U-251
K562 = tested on: K562
DMS-273 = tested on: DMS-273
HL-60 = tested on: HL-60
HOP-18 = tested on: HOP-18
OVCAR-8 = tested on: OVCAR-8
COLO 205 = tested on: COLO 205
UACC-257 = tested on: UACC-257
SF-295 = tested on: SF-295
NCI/ADR-RES = tested on: NCI/ADR-RES
A498 = tested on: A498
SF-539 = tested on: SF-539
SN12C = tested on: SN12C
LOX IMVI = tested on: LOX IMVI
DLD-1 = tested on: DLD-1
NCI-H226 = tested on: NCI-H226
SNB-78 = tested on: SNB-78
NCI-H522 = tested on: NCI-H522
M19-MEL = tested on: M19-MEL
CCRF-CEM = tested on: CCRF-CEM
SF-268 = tested on: SF-268
SK-MEL-28 = tested on: SK-MEL-28
HOP-62 = tested on: HOP-62
IGROV-1 = tested on: IGROV-1
DMS-114 = tested on: DMS-114
OVCAR-5 = tested on: OVCAR-5
SK-OV-3 = tested on: SK-OV-3
UO-31 = tested on: UO-31
HCT-116 = tested on: HCT-116
HCT-15 = tested on: HCT-15
HT-29 = tested on: HT-29
KM-20L2 = tested on: KM-20L2
HOP-92 = tested on: HOP-92
Malme-3M = tested on: Malme-3M
NCI-H23 = tested on: NCI-H23
RXF 393 = tested on: RXF 393
RPMI-8226 = tested on: RPMI-8226
MCF7 = tested on: MCF7
A549 = tested on: A549
SNB-19 = tested on: SNB-19
SW-620 = tested on: SW-620
SNB-75 = tested on: SNB-75
KM12 = tested on: KM12
UACC-62 = tested on: UACC-62
MOLT-4 = tested on: MOLT-4
XF498 = tested on: XF498
EKVX = tested on: EKVX
OVCAR-3 = tested on: OVCAR-3
SK-MEL-2 = tested on: SK-MEL-2
SK-MEL-5 = tested on: SK-MEL-5
OVCAR-4 = tested on: OVCAR-4
NCI-H460 = tested on: NCI-H460
HCC 2998 = tested on: HCC 2998

Structure (SMILES): CCN(CC)CCCC(C)Nc1c2ccc(Cl)cc2nc2cc(Cl)ccc12 (stereo not drawn)
- GI50 (CAKI-1): 3.22 µM (inactive)
- GI50 (U-251): 5.09 µM (inactive)
- GI50 (K562): 2.21 µM (inactive)
- GI50 (DMS-273): 3.32 µM (inactive)
- GI50 (HL-60): 1.91 µM (inactive)
- GI50 (HOP-18): 5.42 µM (inactive)
- GI50 (OVCAR-8): 4.55 µM (inactive)
- GI50 (COLO 205): 1.94 µM (inactive)
- GI50 (UACC-257): 4.6 µM (inactive)
- GI50 (SF-295): 3.4 µM (inactive)
- GI50 (NCI/ADR-RES): 3.44 µM (inactive)
- GI50 (A498): 8.67 µM (inactive)
- GI50 (SF-539): 4.34 µM (inactive)
- GI50 (SN12C): 4.66 µM (inactive)
- GI50 (LOX IMVI): 2.64 µM (inactive)
- GI50 (DLD-1): 2.94 µM (inactive)
- GI50 (NCI-H226): 4.27 µM (inactive)
- GI50 (SNB-78): 9.82 µM (inactive)
- GI50 (NCI-H522): 5.07 µM (inactive)
- GI50 (M19-MEL): 4.85 µM (inactive)
- GI50 (CCRF-CEM): 1.76 µM (inactive)
- GI50 (SF-268): 4.9 µM (inactive)
- GI50 (SK-MEL-28): 5.6 µM (inactive)
- GI50 (HOP-62): 8.18 µM (inactive)
- GI50 (IGROV-1): 4.76 µM (inactive)
- GI50 (DMS-114): 4.41 µM (inactive)
- GI50 (OVCAR-5): 6.7 µM (inactive)
- GI50 (SK-OV-3): 5.6 µM (inactive)
- GI50 (UO-31): 3.57 µM (inactive)
- GI50 (HCT-116): 2.27 µM (inactive)
- GI50 (HCT-15): 3.04 µM
- GI50 (HT-29): 2.47 µM (inactive)
- GI50 (KM-20L2): 3.42 µM (inactive)
- GI50 (HOP-92): 2.77 µM (inactive)
- GI50 (Malme-3M): 12.2 µM (inactive)
- GI50 (NCI-H23): 6.62 µM (inactive)
- GI50 (RXF 393): 3.23 µM (inactive)
- GI50 (RPMI-8226): 2.23 µM (inactive)
- GI50 (MCF7): 3.13 µM (inactive)
- GI50 (A549): 4.78 µM (inactive)
- GI50 (SNB-19): 17 µM (inactive)
- GI50 (SW-620): 3.24 µM (inactive)
- GI50 (SNB-75): 7.03 µM (inactive)
- GI50 (KM12): 3.56 µM (inactive)
- GI50 (UACC-62): 6.89 µM (inactive)
- GI50 (MOLT-4): 1.98 µM (inactive)
- GI50 (XF498): 4.99 µM (inactive)
- GI50 (EKVX): 9.73 µM (inactive)
- GI50 (OVCAR-3): 5.71 µM (inactive)
- GI50 (SK-MEL-2): 15.7 µM (inactive)
- GI50 (SK-MEL-5): 4.76 µM (inactive)
- GI50 (OVCAR-4): 3.37 µM (inactive)
- GI50 (NCI-H460): 3.31 µM (inactive)
- GI50 (HCC 2998): 2.16 µM (inactive)

Structure (SMILES): CCOC(=O)CN(CC)C(=O)NC12CC3CC(CC(C3)C1)C2
- GI50 (CAKI-1): 169 µM (inactive)
- GI50 (U-251): 246 µM (inactive)
- GI50 (K562): 180 µM (inactive)
- GI50 (DMS-273): 233 µM (inactive)
- GI50 (HL-60): 103 µM (inactive)
- GI50 (HOP-18): 148 µM (inactive)
- GI50 (OVCAR-8): 292 µM (inactive)
- GI50 (COLO 205): 141 µM (inactive)
- GI50 (UACC-257): 144 µM (inactive)
- GI50 (SF-295): 230 µM (inactive)
- GI50 (NCI/ADR-RES): 196 µM (inactive)
- GI50 (A498): 136 µM (inactive)
- GI50 (SF-539): 244 µM (inactive)
- GI50 (SN12C): 288 µM (inactive)
- GI50 (LOX IMVI): 151 µM (inactive)
- GI50 (DLD-1): 65.8 µM (inactive)
- GI50 (NCI-H226): 160 µM (inactive)
- GI50 (SNB-78): 240 µM (inactive)
- GI50 (NCI-H522): 155 µM (inactive)
- GI50 (M19-MEL): 184 µM (inactive)
- GI50 (CCRF-CEM): 211 µM (inactive)
- GI50 (SF-268): 281 µM (inactive)
- GI50 (SK-MEL-28): 269 µM (inactive)
- GI50 (HOP-62): 188 µM (inactive)
- GI50 (IGROV-1): 276 µM (inactive)
- GI50 (DMS-114): 134 µM (inactive)
- GI50 (OVCAR-5): 225 µM (inactive)
- GI50 (SK-OV-3): 218 µM (inactive)
- GI50 (UO-31): 139 µM (inactive)
- GI50 (HCT-116): 189 µM (inactive)
- GI50 (HCT-15): 220 µM
- GI50 (HT-29): 166 µM (inactive)
- GI50 (KM-20L2): 170 µM (inactive)
- GI50 (HOP-92): 67 µM (inactive)
- GI50 (Malme-3M): 152 µM (inactive)
- GI50 (NCI-H23): 208 µM (inactive)
- GI50 (RXF 393): 173 µM (inactive)
- GI50 (RPMI-8226): 141 µM (inactive)
- GI50 (MCF7): 177 µM (inactive)
- GI50 (A549): 222 µM (inactive)
- GI50 (SNB-19): 339 µM (inactive)
- GI50 (SW-620): 219 µM (inactive)
- GI50 (SNB-75): 92.9 µM (inactive)
- GI50 (KM12): 255 µM (inactive)
- GI50 (UACC-62): 116 µM (inactive)
- GI50 (MOLT-4): 133 µM (inactive)
- GI50 (XF498): 125 µM (inactive)
- GI50 (EKVX): 207 µM (inactive)
- GI50 (OVCAR-3): 105 µM (inactive)
- GI50 (SK-MEL-2): 131 µM (inactive)
- GI50 (SK-MEL-5): 109 µM (inactive)
- GI50 (OVCAR-4): 175 µM (inactive)
- GI50 (NCI-H460): 200 µM (inactive)
- GI50 (HCC 2998): 222 µM (inactive)
